Earlier results as cited in patent publication US20040185009A1, “Composition and device for treating periodontal diseases” (DEXCEL PHARMA TECHNOLOGIES LTD., priority 2003, published 2004).

Key:
periodontal disease [1] = settings: 24 months, FBP-treated patient group
periodontal disease [2] = settings: 100 mg/day for two months

**Q.** Which “Effect on bone loss” value (periodontal disease [1]) does the source give for `CC(C(=O)O)c1ccc(-c2ccccc2)c(F)c1` (centres unmarked) [FBP, Flurbiprofen] here?
**A.** reduction in bone loss

**Q.** And the “Effect on bone metabolism (standardized radiography, radiopharmaceutical uptake)” value (periodontal disease [2])?
**A.** increased bone metabolism
